Source: paper PMC12401824, “Studies on the impact of modifications at the Gln-Trp site in RM2-based GRPR ligands” (EJNMMI Research, 2025)
Where two headings read alike, the source gives them in different places. Starred links: 1 amine or outer side, 2 acyl side, 3 side chain; linkers in the order of their positions; H or OH if unused. Non-standard residues stand in square brackets, D forms with d. Residues, ends and D or L forms follow the SMILES beside them. *: point of attachment. DOTA = O=C(O)CN1CCN(CC(=O)O)CCN(CC(=O)*)CCN(CC(=O)O)CC1; Sta = CC(C)C[C@H](N)[C@@H](O)CC(=O)O; Bta = N[C@@H](Cc1csc2ccccc12)C(=O)O; X1 = O=C(CN1CCC(N[*:1])CC1)[*:2]; hSer = N[C@@H](CCO)C(=O)O

Legend:
[1] = Biodistribution in PC-3 tumor-bearing CB17-SCID mice; assay type: in vivo; settings: mouse, 100 pmol, ^68Ga-labeled, 1 h p.i., n = 4; for tissue to tissue ratio at 1 h: CB17-SCID, iv, total radioactivity; for tissue uptake at 1 h: intravenous
Experimental: (§1) To establish tumor xenografts, PC-3 cells (5.0 × 10^6 cells per 200 µL) were suspended in a 1/1 mixture (v/v) of Dulbecco’s modified eagle's medium/Ham’s F-12 with Glutamax-I (v/v = 1/1) and Cultrex® Basement Membrane Matrix Type 3 (Trevigen Inc., Gaithersburg, MD, USA) and inoculated subcutaneously onto the right shoulder of CB17-SCID mice (Charles River Laboratories International Inc., Sulzfeld, Germany). Mice (n = 4) were used for experiments when tumor volume has reached 125–500 mm^3 (2–3 weeks after inoculation).
(§2) Biodistribution. […] (n = 4), respectively. Selected organs were removed, weighted and measured in a γ-counter.

[2] = tested on: PC-3 tumor xenograft; experiment: as above; assay type: in vivo; settings: ^68Ga-labeled; 1 h p.i.; n = 4
Experimental: as §1, §2

[3] = tumor and blood, read-out: Tumor-to-Blood ratio
[4] = tumor and bone, read-out: Tumor-to-Bone ratio
[5] = tumor and heart, read-out: Tumor-to-Heart ratio
[6] = tumor and intestine, read-out: Tumor-to-Intestine ratio
[7] = tumor and kidney, read-out: Tumor-to-Kidney ratio
[8] = tumor and liver, read-out: Tumor-to-Liver ratio
[9] = tumor and lung, read-out: Tumor-to-Lung ratio
[10] = tumor and muscle, read-out: Tumor-to-Muscle ratio
[11] = tumor and pancreas, read-out: Tumor-to-Pancreas ratio
[12] = tumor and spleen, read-out: Tumor-to-Spleen ratio
[13] = tumor and stomach, read-out: Tumor-to-Stomach ratio
[14] = adrenal, read-out: Uptake in Adrenal
[15] = blood, read-out: Uptake in Blood
[16] = heart, read-out: Uptake in Heart
[17] = intestine, read-out: Uptake in Intestine
[18] = kidney, read-out: Uptake in Kidney
[19] = liver, read-out: Uptake in Liver
[20] = muscle, read-out: Uptake in Muscle
[21] = pancreas, read-out: Uptake in Pancreas
[22] = spleen, read-out: Uptake in Spleen
[23] = stomach, read-out: Uptake in Stomach
[24] = tumor, read-out: Uptake in Tumor

| SMILES | tissue to tissue ratio at 1 h [1, 3] | tissue to tissue ratio at 1 h [1, 4] | tissue to tissue ratio at 1 h [1, 5] | tissue to tissue ratio at 1 h [1, 6] | tissue to tissue ratio at 1 h [1, 7] | tissue to tissue ratio at 1 h [1, 8] | tissue to tissue ratio at 1 h [1, 9] | tissue to tissue ratio at 1 h [1, 10] | tissue to tissue ratio at 1 h [1, 11] | tissue to tissue ratio at 1 h [1, 12] | tissue to tissue ratio at 1 h [1, 13] | tissue uptake at 1 h [1, 14] [%ID/g] | tissue uptake at 1 h [1, 15] [%ID/g] | tissue uptake at 1 h ([1]; bone, read-out: Uptake in Bone) [%ID/g] | tissue uptake at 1 h [1, 16] [%ID/g] | tissue uptake at 1 h [1, 17] [%ID/g] | tissue uptake at 1 h [1, 18] [%ID/g] | tissue uptake at 1 h [1, 19] [%ID/g] | tissue uptake at 1 h ([1]; lung, read-out: Uptake in Lung) [%ID/g] | tissue uptake at 1 h [1, 20] [%ID/g] | further results |
| --- | --- | --- | --- | --- | --- | --- | --- | --- | --- | --- | --- | --- | --- | --- | --- | --- | --- | --- | --- | --- | --- |
| CC(C)C[C@H](NC(=O)C[C@H](O)[C@H](CC(C)C)NC(=O)[C@H](Cc1c[nH]cn1)NC(=O)CNC(=O)[C@@H](NC(=O)[C@H](C)NC(=O)[C@H](Cc1csc2ccccc12)NC(=O)[C@H](CCC(N)=O)NC(=O)[C@@H](Cc1ccccc1)NC(=O)CN1CCC(NC(=O)CN2CCN(CC(=O)O)CCN(CC(=O)O)CCN(CC(=O)O)CC2)CC1)C(C)C)C(N)=O [[^68Ga]Ga-[Bta^8]RM2, metal not drawn] ({DOTA}-[X1][dF]Q[Bta]AVGH[Sta]L-NH2) | 7.6 ± 2.6 | 29.5 ± 8.2 | 19.8 ± 5 | 12.2 ± 4.5 | 3.3 ± 0.6 | 10.7 ± 2.3 | 8.8 ± 3 | 50.6 ± 19.4 | 1.9 ± 1.3 | 18.7 ± 6.9 | 7.1 ± 0.7 | 1.95 ± 1.3 | 1.07 ± 0.27 | 0.3 ± 0.15 | 0.4 ± 0.1 | 0.66 ± 0.14 | 2.33 ± 0.25 | 0.73 ± 0.17 | 0.92 ± 0.22 | 0.19 ± 0.11 | tissue uptake at 1 h [1, 21]: < 8 %ID/g; tissue uptake at 1 h [1, 22]: 0.46 ± 0.16 %ID/g; tissue uptake at 1 h [1, 23]: 1.07 ± 0.14 %ID/g; tissue uptake at 1 h [1, 24]: ~7.5 %ID/g; Tumor-to-Adrenal ratio [2]: 13.3 ± 17.2 |
| CC(C)C[C@H](NC(=O)C[C@H](O)[C@H](CC(C)C)NC(=O)[C@H](Cc1c[nH]cn1)NC(=O)CNC(=O)[C@@H](NC(=O)[C@H](C)NC(=O)[C@H](Cc1c[nH]c2ccccc12)NC(=O)[C@H](CCO)NC(=O)[C@@H](Cc1ccccc1)NC(=O)CN1CCC(NC(=O)CN2CCN(CC(=O)O)CCN(CC(=O)O)CCN(CC(=O)O)CC2)CC1)C(C)C)C(N)=O [[^68Ga]Ga-[Hse^7]RM2, metal not drawn] ({DOTA}-[X1][dF][hSer]WAVGH[Sta]L-NH2) | 1.9 ± 0.1 | 7.8 ± 0.7 | 6 ± 0.9 | 5 ± 0.3 | 2.2 ± 0.2 | 5.1 ± 0.5 | 3.3 ± 0.6 | 22.8 ± 3.4 | 0.9 ± 0.1 | 5 ± 0.7 | 4.1 ± 0.3 | 2.47 ± 0.3 | 3.92 ± 0.07 | 0.98 ± 0.12 | 1.29 ± 0.14 | 1.52 ± 0.1 | 3.51 ± 0.2 | 1.49 ± 0.06 | 2.33 ± 0.28 | 0.34 ± 0.04 | tissue uptake at 1 h [1, 21]: < 8 %ID/g; tissue uptake at 1 h [1, 22]: 1.55 ± 0.15 %ID/g; tissue uptake at 1 h [1, 23]: 1.88 ± 0.06 %ID/g; tissue uptake at 1 h [1, 24]: ~7.5 %ID/g; Tumor-to-Adrenal ratio [2]: 1.4 ± 1.1 |
